Drawing on ChEMBL document CHEMBL1131723, “Synthesis and structure-activity relationship of novel glycylcycline derivatives leading to the discovery of GAR-936” (1999), this text covers MIC for five compounds.

Holding throughout (assay type): functional
Test [1] has as its system Staphylococcus aureus. Description: In vitro antibacterial activity against Staphylococcus aureus UBMS 88-7 Tet K.
For test [2], the system named is Staphylococcus aureus. Description: In vitro antibacterial activity against Staphylococcus aureus UBMS 90-3 sensitive.
Test [3] concerns Escherichia coli. Description: In vitro antibacterial activity against Escherichia coli PRP1 Tet A.
Test [4] concerns Escherichia coli. In words: In vitro antibacterial activity against Escherichia coli UBMS 88-1 Tet B.
For test [5], the system named is Escherichia coli. In words: In vitro antibacterial activity against Escherichia coli UBMS 90-4 Tet M.
Test [6] relates to Staphylococcus aureus. In words: In vitro antibacterial activity against Staphylococcus aureus UBMS 90-1 Tet M.
The subject of test [7] is Escherichia coli. In words: In vitro antibacterial activity against Escherichia coli UBMS 90-5 sensitive.
Test [8] deals with Staphylococcus aureus. Description: In vitro antibacterial activity against Staphylococcus aureus Smith sensitive.
For test [9], the system named is Escherichia coli. Description: In vitro antibacterial activity against Escherichia coli J3272 Tet D.
Test [10] deals with Enterococcus. Description: In vitro antibacterial activity against Enterococcus ATCC 29212.
The subject of test [11] is Escherichia coli. Description: In vitro antibacterial activity against Escherichia coli J3272 Tet C.

Molecules are shown by their SMILES. In brackets after ≈: the same amount, converted by molar mass. A value given as a limit tells only on which side of the number the result lay.

A word on the MIC: it is the lowest concentration that inhibits growth of the organism. In the case of `CN(C)c1cc(NC(=O)CN2CCSCC2)c(O)c2c1CC1CC3[C@H](N(C)C)C(=O)C(C(N)=O)=C(O)[C@@]3(O)C(=O)C1=C2O` (stereo not given in full), the MIC in [1] was 4 µg/mL (≈ 6.5 µM); in test [2] it was 1 µg/mL (≈ 1.62 µM); in test [3], greater than 32 µg/mL; in [4] it was greater than 32 µg/mL; in test [5], greater than 32 µg/mL; in [6], 1 µg/mL (≈ 1.62 µM). The MIC in test [7] is greater than 32 µg/mL; in test [8], 0.5 µg/mL (≈ 0.812 µM); in [9] it was 16 µg/mL (≈ 26 µM); in [10], 0.25 µg/mL (≈ 0.406 µM); in test [11], greater than 32 µg/mL.

For `CN(C)c1cc(NC(=O)CNCc2ccccc2)c(O)c2c1CC1CC3[C@H](N(C)C)C(=O)C(C(N)=O)=C(O)[C@@]3(O)C(=O)C1=C2O` (stereo not given in full), the MIC in [1] came out at 2 µg/mL (≈ 3.23 µM); in [2], 0.25 µg/mL (≈ 0.403 µM); in test [3], 4 µg/mL (≈ 6.45 µM); in test [4], 2 µg/mL (≈ 3.23 µM); in test [5], 0.5 µg/mL (≈ 0.807 µM); in test [6], 0.5 µg/mL (≈ 0.807 µM). The MIC in [7] came out at 0.5 µg/mL (≈ 0.807 µM); in test [8], 0.25 µg/mL (≈ 0.403 µM); in [9], 0.5 µg/mL (≈ 0.807 µM); in [10], 0.25 µg/mL (≈ 0.403 µM); in [11], 2 µg/mL (≈ 3.23 µM).

With `CN(C)c1cc(NC(=O)CNC2CC2)c(O)c2c1CC1CC3[C@H](N(C)C)C(=O)C(C(N)=O)=C(O)[C@@]3(O)C(=O)C1=C2O` (stereo not given in full), the MIC stood at 4 µg/mL (≈ 7.02 µM) in test [1]; 0.5 µg/mL (≈ 0.878 µM) in test [2]; 32 µg/mL (≈ 56.2 µM) in test [3]; 4 µg/mL (≈ 7.02 µM) in test [4]; 2 µg/mL (≈ 3.51 µM) in test [5]; 0.5 µg/mL (≈ 0.878 µM) in [6]. Moreover, the MIC turned out to be 2 µg/mL (≈ 3.51 µM) in test [7]; 0.25 µg/mL (≈ 0.439 µM) in [8]; 2 µg/mL (≈ 3.51 µM) in test [9]; 0.25 µg/mL (≈ 0.439 µM) in [10]; 8 µg/mL (≈ 14 µM) in test [11].

As to `CCCCCCNCC(=O)Nc1cc(N(C)C)c2c(c1O)C(=O)C1=C(O)[C@]3(O)C(O)=C(C(N)=O)C(=O)[C@@H](N(C)C)C3CC1C2` (stereo not given in full), the MIC in test [1] turned out to be 2 µg/mL (≈ 3.26 µM); in test [2] it was 0.06 µg/mL (≈ 0.0978 µM); in [3], 0.5 µg/mL (≈ 0.815 µM); in [4] it was 0.5 µg/mL (≈ 0.815 µM); in [5], 0.25 µg/mL (≈ 0.407 µM); in test [6], 0.25 µg/mL (≈ 0.407 µM). For the same compound, the MIC was determined as 0.25 µg/mL (≈ 0.407 µM) in [7]; 0.12 µg/mL (≈ 0.196 µM) in test [8]; 0.12 µg/mL (≈ 0.196 µM) in test [9]; 0.12 µg/mL (≈ 0.196 µM) in test [10]; 0.5 µg/mL (≈ 0.815 µM) in [11].

On to `CCCCNCC(=O)Nc1cc(N(C)C)c2c(c1O)C(=O)C1=C(O)[C@]3(O)C(O)=C(C(N)=O)C(=O)[C@@H](N(C)C)C3CC1C2` (stereo not given in full), for which the MIC is 2 µg/mL (≈ 3.41 µM) in [1]; 0.25 µg/mL (≈ 0.427 µM) in [2]; 1 µg/mL (≈ 1.71 µM) in test [3]; 0.5 µg/mL (≈ 0.854 µM) in test [4]; 0.25 µg/mL (≈ 0.427 µM) in test [5]; 0.5 µg/mL (≈ 0.854 µM) in test [6]. For the same compound, the MIC was 0.5 µg/mL (≈ 0.854 µM) in test [7]; 0.12 µg/mL (≈ 0.205 µM) in test [8]; 0.25 µg/mL (≈ 0.427 µM) in test [9]; 0.12 µg/mL (≈ 0.205 µM) in test [10]; 0.5 µg/mL (≈ 0.854 µM) in test [11].
